Experimental data from the supplement of paper PMC10307832.

Tests used:
Test in all cases: relative viability (nuclei count vs DMSO), 5 days (fraction); higher = more cells survive
Alpelisib + Trametinib = compound: Cc1nc(NC(=O)N2CCC[C@H]2C(N)=O)sc1-c1ccnc(C(C)(C)C(F)(F)F)c1 [Alpelisib] + CC(=O)Nc1cccc(-n2c(=O)n(C3CC3)c(=O)c3c(Nc4ccc(I)cc4F)n(C)c(=O)c(C)c32)c1 [Trametinib] (partner 0.02 µM)
Procedure, shortened: (§1)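 For relative viability, nuclei counts in treated wells were divided by those in vehicle wells. Lung cancer cell lines had been pin-tool dosed in 1536-well plates the day after seeding and cultured for 5 days, then fixed and stained in one step (final 0.05% Triton X-100, 1% formaldehyde, 1 ug/ml Hoechst) and imaged at 4×. Doses were one drug alone or a fixed anchor-drug dose plus five library-drug doses (not always all listed) in √10 steps, and values are duplicate-plate medians.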

Alpelisib + Luminespib = compound: Cc1nc(NC(=O)N2CCC[C@H]2C(N)=O)sc1-c1ccnc(C(C)(C)C(F)(F)F)c1 [Alpelisib] + CCNC(=O)c1noc(-c2cc(C(C)C)c(O)cc2O)c1-c1ccc(CN2CCOCC2)cc1 [Luminespib] (partner 0.01 µM)
Procedure, shortened: as §1

Alpelisib + Foretinib = compound: Cc1nc(NC(=O)N2CCC[C@H]2C(N)=O)sc1-c1ccnc(C(C)(C)C(F)(F)F)c1 [Alpelisib] + COc1cc2c(Oc3ccc(NC(=O)C4(C(=O)Nc5ccc(F)cc5)CC4)cc3F)ccnc2cc1OCCCN1CCOCC1 [Foretinib] (partner 0.25 µM)
Procedure, shortened: as §1

Alpelisib + Pemetrexed = compound: Cc1nc(NC(=O)N2CCC[C@H]2C(N)=O)sc1-c1ccnc(C(C)(C)C(F)(F)F)c1 [Alpelisib] + Nc1nc2[nH]cc(CCc3ccc(C(=O)N[C@@H](CCC(=O)O)C(=O)O)cc3)c2c(=O)[nH]1 [Pemetrexed] (partner 0.2 µM)
Procedure, shortened: as §1

## UMC-11
Alpelisib + Trametinib; first compound 0.04 µM
  relative viability: 0.696
Alpelisib + Trametinib; first compound 0.1265 µM
  relative viability: 0.628
Alpelisib + Trametinib; first compound 0.4 µM
  relative viability: 0.875
Alpelisib + Trametinib; first compound 1.265 µM
  relative viability: 0.67
Alpelisib + Trametinib; first compound 4 µM
  relative viability: 0.68
Alpelisib + Luminespib; first compound 0.04 µM
  relative viability: 1.04
Alpelisib + Luminespib; first compound 0.1265 µM
  relative viability: 1.05
Alpelisib + Luminespib; first compound 0.4 µM
  relative viability: 1.06
Alpelisib + Luminespib; first compound 1.265 µM
  relative viability: 0.766
Alpelisib + Luminespib; first compound 4 µM
  relative viability: 0.729
Alpelisib + Foretinib; first compound 0.04 µM
  relative viability: 1.01
Alpelisib + Foretinib; first compound 0.1265 µM
  relative viability: 1.05
Alpelisib + Foretinib; first compound 0.4 µM
  relative viability: 1.12
Alpelisib + Foretinib; first compound 1.265 µM
  relative viability: 0.839
Alpelisib + Foretinib; first compound 4 µM
  relative viability: 0.875
Alpelisib + Pemetrexed; first compound 0.04 µM
  relative viability: 0.732
Alpelisib + Pemetrexed; first compound 0.1265 µM
  relative viability: 0.709
Alpelisib + Pemetrexed; first compound 0.4 µM
  relative viability: 0.844
Alpelisib + Pemetrexed; first compound 1.265 µM
  relative viability: 0.699
Alpelisib + Pemetrexed; first compound 4 µM
  relative viability: 0.692
